Test results from patent US6426229B1, “Chelating agent and detergent comprising the same” (Mitsubishi Rayon Co., Ltd., priority 1995, dated 2002).

experiment: Storage of aqueous solution or slurry for 60 days: HPLC analysis of components and appearance; type: physicochemical; settings: keeping temperature 50° C.
Procedure: (§1) This aqueous solution was kept at 50° C. for 60 days, and, then, the components were analyzed by HPLC and, simultaneously, the appearance of the solution was observed.
as §1
This aqueous solution was kept at 50° C. for 60 days. Then, the components were analyzed by HPLC and, simultaneously, the appearance of the solution was observed.

Row | SMILES | Appearance after kept for 60 days | Content of the compound of the formula [I] in aqueous solution after kept for 60 days [wt. %]
1 | O=C([O-])CN[C@@H](CC(=O)[O-])C(=O)[O-].[Na+].[Na+].[Na+] [Example 85, trisodium salt of (S)-aspartic acid-N-monoacetic acid] | Light yellow transparent aqueous solution | 35.4
2 | O=C([O-])C[C@@H](C(=O)[O-])N(CC(=O)[O-])CC(=O)[O-].[Na+].[Na+].[Na+].[Na+] [Example 86, tetrasodium salt of (S)-aspartic acid-N,N-diacetic acid] | Light yellow transparent aqueous solution | 36.4
3 | O=C([O-])CCN[C@@H](CC(=O)[O-])C(=O)[O-].[Na+].[Na+].[Na+] [Example 87, trisodium salt of (S)-aspartic acid-N-monopropionic acid] | Light yellow transparent aqueous solution | 37.8
4 | C[C@@H](C(=O)[O-])N(CC(=O)[O-])CC(=O)[O-].[Na+].[Na+].[Na+] [Example 88, trisodium salt of (S)-α-alanine-N,N-diacetic acid] | Light yellow transparent aqueous solution | 36.5
5 | O=C([O-])CN(CCS(=O)(=O)[O-])CC(=O)[O-].[Na+].[Na+].[Na+] [Example 100, trisodium salt of taurine-N,N-diacetic acid] | Light yellow transparent aqueous solution | 34.7
6 | CN(CC(=O)[O-])CC(=O)[O-].[Na+].[Na+] [Example 101, disodium N-methyliminodiacetate] | Light yellow transparent aqueous solution | 36.6
7 | O=C([O-])CN(CC(=O)[O-])c1ccccc1C(=O)[O-].[Na+].[Na+].[Na+] [Example 102, trisodium salt of anthranilic acid-N,N-diacetic acid] | Light yellow transparent aqueous solution | 37.8
8 | O=C([O-])CC(NCCNC(CC(=O)[O-])C(=O)[O-])C(=O)[O-].[Na+].[Na+].[Na+].[Na+] (stereo not shown) [Example 112, tetrasodium ethylenediamine-N,N′-disuccinate] | Light yellow transparent aqueous solution | 36.4
9 | O=C([O-])C[C@H](NCCN[C@@H](CC(=O)[O-])C(=O)[O-])C(=O)[O-].[Na+].[Na+].[Na+].[Na+] [Example 113, tetrasodium (S,S)-ethylenediamine-N,N′-disuccinate] | Light yellow transparent aqueous solution | 35.6
10 | O=C([O-])CC(NCCCNC(CC(=O)[O-])C(=O)[O-])C(=O)[O-].[Na+].[Na+].[Na+].[Na+] (stereo not shown) [Example 114, tetrasodium 1,3-propanediamine-N,N′-disuccinate] | Light yellow transparent aqueous solution | 36.4
11 | O=C([O-])CC(NCCNC(CC(=O)[O-])C(=O)[O-])C(=O)[O-].[Cu+2].[Na+].[Na+] (stereo not shown) [Example 124, copper disodium ethylenediamine-N,N′-disuccinate] | Dark blue transparent aqueous solution | 36.3
12 | O=C([O-])C[C@H](NCCN[C@@H](CC(=O)[O-])C(=O)[O-])C(=O)[O-].[Fe+3].[NH4+] [Example 125, iron ammonium (S,S)-ethylenediamine-N,N′-disuccinate] | Reddish brown aqueous solution | 36.5
13 | O=C([O-])CC(NCCCNC(CC(=O)[O-])C(=O)[O-])C(=O)[O-].[Cu+2].[Na+].[Na+] (stereo not shown) [Example 126, copper disodium 1,3-propanediamine-N,N′-disuccinate] | Dark blue transparent aqueous solution | 36.4
14 | O=C([O-])CN[C@@H](CC(=O)[O-])C(=O)[O-].[Na+].[Na+].[Na+] [compound 29, trisodium salt of (S)-aspartic acid-N-monoacetic acid] | Brown aqueous solution | 31.1
15 | O=C([O-])C[C@@H](C(=O)[O-])N(CC(=O)[O-])CC(=O)[O-].[Na+].[Na+].[Na+].[Na+] [compound 30, tetrasodium salt of (S)-aspartic acid-N,N-diacetic acid] | Brown aqueous solution | 31.8
16 | O=C([O-])CCN[C@@H](CC(=O)[O-])C(=O)[O-].[Na+].[Na+].[Na+] [compound 31, trisodium salt of (S)-aspartic acid-N-monopropionic acid] | Brown aqueous solution | 33.2
17 | C[C@@H](C(=O)[O-])N(CC(=O)[O-])CC(=O)[O-].[Na+].[Na+].[Na+] [compound 32, trisodium salt of (S)-α-alanine-N,N-diacetic acid] | Brown aqueous solution | 31.8
18 | O=C([O-])CN[C@@H](CC(=O)[O-])C(=O)[O-].[Na+].[Na+].[Na+] [compound 33, trisodium salt of (S)-aspartic acid-N-monoacetic acid] | Brown slurry | 30.5
19 | O=C([O-])CN(CCS(=O)(=O)[O-])CC(=O)[O-].[Na+].[Na+].[Na+] [compound 37, trisodium salt of taurine-N,N-diacetic acid] | Brown aqueous solution | 30.4
20 | CN(CC(=O)[O-])CC(=O)[O-].[Na+].[Na+] [compound 38, disodium N-methyliminodiacetate] | Brown aqueous solution | 29.9
21 | O=C([O-])CN(CC(=O)[O-])c1ccccc1C(=O)[O-].[Na+].[Na+].[Na+] [compound 39, trisodium salt of anthranilic acid-N,N-diacetic acid] | Brown aqueous solution | 31.8
22 | O=C([O-])CN(CCS(=O)(=O)[O-])CC(=O)[O-].[Na+].[Na+].[Na+] [compound 40, trisodium salt of taurine-N,N-diacetic acid] | Brown slurry | 29.5
23 | O=C([O-])CC(NCCNC(CC(=O)[O-])C(=O)[O-])C(=O)[O-].[Na+].[Na+].[Na+].[Na+] (stereo not shown) [compound 43, tetrasodium ethylenediamine-N,N′-disuccinate] | Light yellow transparent aqueous solution | 35.7
